Patent US8658649B2, “Kinase inhibitor” (Sanofi, priority 2006, dated 2014)
“And” between values parts separate entries of the source, which are not always exact repeats. Equal entries are not always repeated.

What was measured:
Assay type in all cases: cell-based
[1] = tested on: DLCL-2; assay: Viability assay of liquid tumor cell lines (MTS); settings: DLCL-2 (B-NHL), N = 4
Procedure: (§1) This method is to determine the viability of a liquid tumor cell line following treatment with a test compound. Tumor cells are maintained in suspension at log phase growth. On the day of use, cells are resuspended to a density of 0.05 to 0.1 million/ml and cells are incubated in 96 well plate with the test compounds for 96 hours. Viability of cells was measured by incubating cells with Promega's MTS reagent. The viability of the cell is proportional to the change in absorbance at 490 nm. By comparing the absorbance between control and compound-treated cells, the impact of the test compounds on the cell viability is determined as a percent of the control cell viability.
(§2) Harvest cells in complete RPMI from log-phase cultures at densities of approximately 0.3-0.7 million/ml. Count cells and adjust to 0.1 million/ml in phenol red free cRPMI (For fast growing cells with doubling time of equal or less than 24 hours, e.g. K562, use 0.05 million/ml instead to avoid over-growing).
(§3) Transfer triplicates of 100 μl of cells to the wells of 96-well clear plates for a total of 10000 cells/well. Note that each well already contains 10 μl of 10× concentrated test compound prepared as above.
(§4) Incubate cells for 72-96 hours at 37° C. in a tissue culture incubator containing 5% CO2.
(§5) 1. Thaw the Promega's MTS reagent and add 20 ul to each well with a repeat pipetor.
(§6) 4. Incubate at 370 C until the absorbance at 490 nm for the control cells is >1.5.
(§7) 5. Calculate the averaged compound-treated cell data as a percent of the averaged control cell data as follows: (Compound-treated value/control value)*100=% of control value Results: […]

[2] = tested on: DOHH-2; assay: Viability assay of liquid tumor cell lines (MTS); settings: DOHH-2 (B-NHL), N = 4
Procedure: as §1, §2, §3, §4, §5, §6, §7

[3] = tested on: Granta-519; assay: Viability assay of liquid tumor cell lines (MTS); settings: Granta-519 (MCL), N = 4
Procedure: as §1, §2, §3, §4, §5, §6, §7

[4] = tested on: HL-60; assay: Viability assay of liquid tumor cell lines (MTS); settings: HL-60 (AML), N = 4
Procedure: as §1, §2, §3, §4, §5, §6, §7

[5] = tested on: JVM-2; assay: Viability assay of liquid tumor cell lines (MTS); settings: JVM-2 (B-CLL), N = 4, listed as A003397769, 10 µM
Procedure: as §1, §2, §3, §4, §5, §6, §7

[6] = tested on: Jeko-1; assay: Viability assay of liquid tumor cell lines (MTS); settings: Jeko-1 (MCL), N = 4
Procedure: as §1, §2, §3, §4, §5, §6, §7

[7] = tested on: Jurkat; assay: Viability assay of liquid tumor cell lines (MTS); settings: Jurkat (T-ALL), N = 4; for IC50: MTS assay
Procedure: as §1, §2, §3, §4, §5, §6, §7

[8] = tested on: Jurl-MK1; assay: Viability assay of liquid tumor cell lines (MTS); settings: Jurl-MK1 (CML), N = 4
Procedure: as §1, §2, §3, §4, §5, §6, §7

[9] = tested on: K562; assay: Viability assay of liquid tumor cell lines (MTS); settings: K562 (CML), N = 4
Procedure: as §1, §2, §3, §4, §5, §6, §7

[10] = tested on: KG-1; assay: Viability assay of liquid tumor cell lines (MTS); settings: KG-1 (AML), N = 4
Procedure: as §1, §2, §3, §4, §5, §6, §7

[11] = tested on: L-363; assay: Viability assay of liquid tumor cell lines (MTS); settings: L-363 (MM), N = 4
Procedure: as §1, §2, §3, §4, §5, §6, §7

[12] = tested on: ML-2; assay: Viability assay of liquid tumor cell lines (MTS); settings: ML-2 (AML), N = 4
Procedure: as §1, §2, §3, §4, §5, §6, §7

[13] = tested on: Nalm-6; assay: Viability assay of liquid tumor cell lines (MTS); settings: Nalm-6 (B-ALL), N = 4
Procedure: as §1, §2, §3, §4, §5, §6, §7

[14] = tested on: RPMI8226; assay: Viability assay of liquid tumor cell lines (MTS); settings: RPMI8226 (MM), N = 4
Procedure: as §1, §2, §3, §4, §5, §6, §7

[15] = tested on: hematological malignant cell lines; assay: Viability assay (MTS), panel of hematological malignant cell lines
Procedure: as §1, §2, §3, §4
1. […]
4. Incubate at 370 C until the absorbance at 490 nm for the control cells is >1.5. […]

Structure (SMILES): CCc1c(-c2ccc(C(C)(C)O)cc2)[nH]c2nccnc12 [compound of Formula I, 2-[4-(7-Ethyl-5H-pyrrolo[2,3-b]pyrazin-6-yl)-phenyl]-propan-2-ol]
- % Inhibition at max. conc. (10 uM) [1]: 0%
- % Inhibition at max. conc. (10 uM) ([2]; 10 uM): 75%
- IC50 ([2]; Homo sapiens, MTS assay): 4.5 µM
- % Inhibition at max. conc. (10 uM) ([3]; 10 uM): 67%
- IC50 ([3]; Homo sapiens, MTS assay): 3.4 µM
- % Inhibition at max. conc. (10 uM) [4]: 35%
- % Inhibition at max. conc. (10 uM) [5]: 60% and 59%
- IC50 ([6]; Homo sapiens, MTS assay): 3.1 µM
- % Inhibition at max. conc. (10 uM) ([6]; 10 uM): 97%
- IC50 ([7]; Homo sapiens, Jurkat): 6.8 µM
- % Inhibition at max. conc. (10 uM) ([7]; 10 uM): 43%
- IC50 ([7]; listed as A003397769): > 10 µM
- % Inhibition at max. conc. (10 uM) [8]: 28%
- % Inhibition at max. conc. (10 uM) [9]: 21%
- IC50 ([10]; Homo sapiens, MTS assay): 1.9 µM
- % Inhibition at max. conc. (10 uM) ([10]; 10 uM): 91%
- IC50 ([11]; Homo sapiens, MTS assay): 5.5 µM
- % Inhibition at max. conc. (10 uM) ([11]; 10 uM): 61%
- IC50 ([12]; Homo sapiens, MTS assay): > 10 µM
- % Inhibition at max. conc. (10 uM) ([12]; 10 uM): 28%
- IC50 ([13]; Homo sapiens, MTS assay): 5.5 µM
- % Inhibition at max. conc. (10 uM) ([13]; 10 uM): 84%
- IC50 ([14]; Homo sapiens, RPMI-8226, MTS assay): > 10 µM
- % Inhibition at max. conc. (10 uM) ([14]; 10 uM): 36%
- anti-proliferation activity in the two MCL cell lines ([15]; Jeko-1 and Granta-519): consistently active
- hematological malignant cell lines against which the compound is inhibitory ([15]; MTS assay, panel of Table 4): 6 out of 15
